From patent US4968686A, “Acyclic pyrrolo [2,3-d]pyrimidine analogs as antiviral agents” (The Regents of The University of Michigan, priority 1989, dated 1990)
Like-named read-outs stand apart in the source and are kept apart here.

What was measured:
HCMV [1] = test: HCMV titer (yield) reduction assay; type: cell-based; conditions: Human betaherpesvirus 5; for IC90: Table 1, I90, HFF cells, read-out: HCMV Yield, 90% inhibitory concentration (I90)
Description: (§1) The 148 strain of HSV-1 was used in most experiments and was provided by Dr. T. W. Schafer of Schering corporation. The HF strain of HSV-1 was used in selected experiments and was obtained from Dr. G. H. Cohen, University of Pennsylvania. The Towne strain, plaque-purified isolate Po, of HCMV was a gift of Dr. Mark Stinski, University of Iowa.
(§2) HCMV was titered in 24-well cluster dishes which were planted to contain 5×10^4 cells/well, grown as described above. When the cells were 70 to 80% confluent, 0.2 ml of the virus suspension was added per wall and adsorbed as described above. At least three ten-fold dilutions of each preparation were used. Following virus adsorption, the cell sheets were overlayed with 0.5% methocel (4000 CPS) in maintenance medium [MEM(E) with 1.1 gm/liter NaHCO3, 100 units/ml penicillin G, 100 μg/ml streptomycin, and 5% fetal bovine serum]. The cultures were incubated in a humidified atmosphere of 4% CO2 -96% air. Viral foci were visible 5 to 7 days after infection using at least 10-fold magnification. Cells were fixed and stained by a 10-minute exposure to a 0.1% solution of crystal violet in 20% methanol 7 to 12 days after infection. Microscopic foci were enumerated at 20-fold magnification using a Nikon Profile Projector.
(§3) For titer reduction analysis, HFF cells were planted as described above in 24-well cluster dishes or in 25 cm^2 flasks. When monolayers were approximately 70% confluent, HCMV was added at a m.o.i. of 0.5 p.f.u. per cell and adsorbed as detailed above. Compounds dissolved in growth medium were added in one or one-half logarithm10 dilutions and incubation continued at 37° C. After 7 to 10 days of incubation, culture dishes or flasks were frozen at […] For titer determination, cells were thawed and then subjected to two more cycles of freezing and thawing at 37° C. Serial, one-logarithm10 dilutions of the final suspension were prepared and inoculated onto new cultures of HFF cells. Titer determination was as detailed above in part (1) (b).
(§4) Dose-response relationships were used to compare drug effects. These were constructed by linearly regressing the percent inhibition of parameters derived in the preceding sections against log drug concentrations. The 50% inhibitory (I50) concentrations were calculated from the regression lines using the methods described by Goldstein. See Goldstein, A., Biostatistics: An Introductory Text, MacMillan, N.Y., 1964, pp. 156-161. Along with the I50 concentration for visual cytotoxicity, the averaged I50 concentrations are compared to I50 concentrations for inhibition for HCMV or HSV-1 replication. Compounds for which the ratio of cytotoxicity I50 concentrations to antiviral I50 concentrations (in vitro therapeutic index) were greater than 10, were considered for further study.

[2] = Visual cytotoxicity scoring in HFF cells; type: cell-based; conditions: human, Table 1, at time of HCMV plaque enumeration, read-out: 50% Inhibitory Concentration Cytotoxicity HFF (visual)
Description: (§5) Cytotoxicity produced in HFF and BSC-1 cells was estimated by visual scoring of cells not affected by virus infection in the HCMV and HSV-1 plaque reduction assays. Cytopathology was estimated at 35- and 60-fold magnification and scored on a zero to four plus basis. Wells were scored on the day of staining.
as §4

[3] = Visual cytotoxicity scoring in BSC-1 cells; type: cell-based; conditions: african green monkey, Table 1, at time of HSV-1 plaque enumeration, read-out: 50% Inhibitory Concentration Cytotoxicity BSC (visual)
Description: as §5, §4

in vitro = type: cell-based, human; conditions: human, kb cells
Method: KB or HFF cells were planted using a Costar Transplate-96 (Costar, Cambridge, Mass.) in Costar 96-well cluster dishes at a concentration of 10,000 to 12,000 cells per well. Wells were suspended in 200 μl of medium [MDM(H) plus 0.7 gm/liter NaCHO3 supplemented with 10% calf serum] per well. After incubation of 16 to 24 hours at 37° C. in a humidified atmosphere of 4% CO2 in air, […] of medium was removed per well. One-hundred μl of medium with or without compounds in twice their final concentrations was added to each well using a Titertek Multichannel Pipette. Final concentrations of compounds ranged from 0.1 to 320 μM. Fifty μl of medium containing radioactive precursors also was added to each well to give a final concentration to 1 to 3 μCi/ml of labeled precursor. [^3 H]Thd was diluted with unlabeled dThd to give a final concentration of 3 or 6 μM.
Logarithmic cell growth occurred during this time with continual uptake of labeled precursors. At the end of the incubation period, cells were individually harvested from each well using a Skatron Cell harvester (Skatronh, Inc., Sterling, Va.). Cultures for individual wells were harvested onto filter paper and washed free of unincorporated label with nine sequential washes with 5% trichloroacetic acid, nine washes with water, and nine with ethanol using the Skatron unit. Filters were dried, circles from individual cultures were punched from the filter mat and placed into mini-vials. Liquid scintillation solution was added, and radioactivity determined in a Beckman model LS8100 liquid scintillation spectrometer. All samples were counted for 2.0 minutes each, with three rounds of counting. Counts per minute were determined following the application of statistical methods to eliminate count rates which fell outside distribution limits defined by Chauvenet's rejection criterion.
All analyses were performed in triplicate. That is, three culture wells were used per time point, radioactive precursor, and drug concentration in all experiments. Results from triplicate assays were converted to percent of control and plotted as log dose-response curves from which 50% inhibitor (I50) concentrations were interpolated. Three concentrations of vidarabine were included on all plates as a positive control.
as §4

HCMV [4] = test: HCMV titer, plaque or yield reduction; type: cell-based, human cytomegalovirus (Towne strain) in HFF cells
Description: as §1, §2
The effect of compounds of the replication of HCMV has been measured using both a plaque (focus) reduction assay and a titer (yield) reduction assay. For the former, HFF cells in 24-well culture dishes were infected with approximately 50 p.f.u. of HCMV per well using the procedures detailed above. Compounds dissolved in growth medium were added in three to six selected concentrations to triplicate wells following virus adsorption. Following incubation at 37° C. for 7 to 10 days, cell sheets were fixed, stained and microscopic foci were enumerated as described above. Drug effects were calculated as a percentage of reduction in number of foci in the presence of each drug concentration compared to the number observed in the absence of drug. DHPG (ganciclovir) was used as a positive control in all experiments.
as §3, §4

[5] = Human betaherpesvirus 5, Table 2, read-out: HCMV Titer, Plaque or Yield Reduction, 50% Inhibitory Concentration

| Compound | IC90 (HCMV [1]) [µM] | CC50 [2] [µM] | CC50 [3] [µM] | CC50 (in vitro) [µM] | IC50 (HCMV [4]; [5]) [µM] | log reduction at 100 µM (HCMV [1]; FIG. 2, 10-fold higher concentration than UMJD 183 (10 μM)) | activity against HCMV (in words) (HCMV [4]) | log reduction at 10 µM (HCMV [1]; FIG. 2, 10 μM) | IC50 (HCMV [4]; Human betaherpesvirus 5, read-out: HCMV Titer, Plaque or Yield Reduction, 50% Inhibitory Concentration) [µM] |
| --- | --- | --- | --- | --- | --- | --- | --- | --- | --- |
| Nc1nc(O)c2ncn(COC(CO)CO)c2n1 [Ganciclovir (DHPG), reference compound] | 1.8 | > 100 | > 100 | 1000 | 8.8 |  |  |  |  |
| Nc1ncnc2c1c(Cl)cn2COC(CO)CO [UMJD 186, 4-amino-5-chloro-7-[(1,3-dihydroxy-2-propoxy)-methyl]pyrrolo[2,3-d]pyrimidine] | 8 | > 100 | > 100 | > 100 |  | 5 |  |  |  |
| OCC(CO)OCn1cc(Br)c2c(NO)ncnc21 [UMJD 299, 4-hydroxylamino-5-bromo-7-[(1,3-dihydroxy-2-propoxy)methyl]pyrrolo[2,3-d]pyrimidine] | 10 | > 100 |  | 357 |  |  | active and nearly as potent as the 4-amino analogs |  |  |
| Nc1ncnc2c1c(I)cn2COCCO [UMJD 104, 4-Amino-5-iodo-7-(2-hydroxyethoxymethyl)pyrrolo[2,3-d]-pyrimidine] | 14 | 100 | > 100 | 94 | 24 |  | active |  |  |
| Nc1ncnc2c1c(Cl)cn2COCCO [UMJD 100, 4-Amino-5-chloro-7-(2-hydroxyethoxymethyl)pyrrolo[2,3-d]-pyrimidine] | 46 | > 100 | > 100 | 350 | 16 |  | active |  |  |
| Nc1ncnc2c1c(Br)cn2COC(CO)CO [UMJD 183, 4-amino-5-bromo-7-[(1,3-dihydroxy-2-propoxy)methyl]-pyrrolo[2,3-d]pyrimidine] | 1.9 | > 100 | > 100 | 25 |  |  | most active | ~5 |  |
| Nc1ncnc2c1c(Br)cn2COCCO [UMJD 102, 4-Amino-5-bromo-7-(2-hydroxyethoxymethyl)pyrrolo[2,3-d]-pyrimidine] | 13 | 100 | > 100 | 100 |  |  | active |  | 3.9 |
| Nc1nc2c(ncn2COCCO)c(=O)[nH]1 [Acyclovir, reference compound] | 90 | > 100 | > 100 | > 100 | 63 |  | only modest activity |  |  |
